# Values of other authors, collected in US20100322961A1, “Intranasal Drug Delivery System” (priority 2007, published 2010).
# Settings: pure substance; background statement
structure (smiles),measurement,value
COc1cc(CNC(=O)CCCC/C=C/C(C)C)ccc1O [capsaicin],pungency (Scoville heat units),"15,000,000-16,000,000 Scoville units"
